# Results reported in US20140199401A1, “EXTENDED RELEASE PHARMACEUTICAL COMPOSITIONS OF FESOTERODINE” (CADILA HEALTHCARE LIMITED, priority 2011, published 2014).
# Counter-ions that a name gives are not always drawn.
# Experiment: Particle size data of fesoterodine fumarate
# Assay type: physicochemical
# Description: (Particle size data of Fesoterodine fumarate: D10-47.3μ; D50-156μ; D90-293μ) • Procedure: Mixture of fesoterodine fumarate, microcrystalline cellulose, corn starch, lactose monohydrate, hypromellose, and povidone K 30 was lubricated with magnesium stearate and talc. The lubricated blend was then compressed into tablets. The tablets were finally coated with Opadry dispersion in purified water.
# The formulation was prepared with the same excipients in the same quantity as used in Example 1. Only difference is in the particle size of fesoterodine fumarate used in that formulation. In this comparative example, particle size of fesoterodine fumarate is used such that D10-2.67μ; D50-34.48μ; D90-125.3μ.
# [1] = fesoterodine fumarate used in Comparative Example 1
# [2] = fesoterodine fumarate used in Example 1
compound,measurement,setting,value
"CC(C)C(=O)Oc1ccc(CO)cc1[C@H](CCN(C(C)C)C(C)C)c1ccccc1 [Fesoterodine fumarate, 2-[(1R)-3-(diisopropylamino)-1-phenylpropyl]-4-(hydroxymethyl)phenyl isobutyrate]",Particle size D10,[1],2.67 μ
same,Particle size D50,[1],34.48 μ
same,Particle size D90,[1],125.3 μ
same,Particle size D10,[2],47.3 μ
same,Particle size D50,[2],156 μ
same,Particle size D90,[2],293 μ
